Data as given in article PMC3875306 (Bioorganic & medicinal chemistry letters, 2013).

Legend:
[1] = test system: rat model of anxiety; conditions: cited from earlier work
[2] = test system: rat models of addiction; conditions: cited from earlier work
[3] = test system: squirrel monkey models of addiction; conditions: cited from earlier work
[4] = test system: acoustic prepulse inhibition models; conditions: cited from earlier work
[5] = target: human mGlu1 (Homo sapiens, UniProt Q13255); test: Calcium mobilization mGlu1 assay; conditions: for LLE (ligand-lipophilicity efficiency): LLE = pIC50 - cLogP; for preference in mGlu1 NAM activity for the R-enantiomer versus the S-enantiomer: 15 vs 14, 17 vs 16
Chain of human mGlu1 (Q13255 19-1194): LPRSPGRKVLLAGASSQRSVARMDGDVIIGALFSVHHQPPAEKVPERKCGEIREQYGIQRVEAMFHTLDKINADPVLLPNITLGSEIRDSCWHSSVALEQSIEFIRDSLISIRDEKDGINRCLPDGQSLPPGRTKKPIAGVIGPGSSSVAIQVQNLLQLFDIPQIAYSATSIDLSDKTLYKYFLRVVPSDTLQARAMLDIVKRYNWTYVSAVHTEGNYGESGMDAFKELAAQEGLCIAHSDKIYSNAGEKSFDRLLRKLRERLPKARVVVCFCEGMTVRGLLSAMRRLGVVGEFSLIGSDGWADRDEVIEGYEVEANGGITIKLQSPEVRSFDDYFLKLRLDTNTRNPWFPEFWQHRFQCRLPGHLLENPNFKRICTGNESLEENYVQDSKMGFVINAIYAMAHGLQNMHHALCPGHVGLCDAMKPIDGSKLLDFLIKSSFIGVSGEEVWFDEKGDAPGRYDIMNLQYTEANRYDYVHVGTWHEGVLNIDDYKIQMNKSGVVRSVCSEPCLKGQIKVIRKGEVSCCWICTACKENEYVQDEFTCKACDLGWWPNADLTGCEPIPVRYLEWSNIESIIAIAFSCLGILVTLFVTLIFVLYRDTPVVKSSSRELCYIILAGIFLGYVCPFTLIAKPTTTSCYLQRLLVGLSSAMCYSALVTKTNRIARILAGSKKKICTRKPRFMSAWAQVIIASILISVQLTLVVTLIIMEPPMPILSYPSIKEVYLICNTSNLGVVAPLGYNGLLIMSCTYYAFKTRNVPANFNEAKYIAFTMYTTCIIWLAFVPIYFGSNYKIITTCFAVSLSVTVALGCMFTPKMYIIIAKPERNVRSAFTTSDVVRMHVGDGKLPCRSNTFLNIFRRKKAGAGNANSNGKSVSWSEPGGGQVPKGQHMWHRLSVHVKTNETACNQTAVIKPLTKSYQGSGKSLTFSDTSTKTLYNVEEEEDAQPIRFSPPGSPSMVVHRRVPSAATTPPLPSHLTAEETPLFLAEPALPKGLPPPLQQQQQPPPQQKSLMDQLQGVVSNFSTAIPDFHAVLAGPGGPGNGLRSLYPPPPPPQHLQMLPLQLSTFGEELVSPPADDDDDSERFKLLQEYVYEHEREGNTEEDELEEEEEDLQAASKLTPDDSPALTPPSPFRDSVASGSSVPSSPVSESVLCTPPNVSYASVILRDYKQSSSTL

[6] = target: rat mGlu1 (Rattus norvegicus, UniProt P23385); test: Functional cell based assay against rat mGlu1; conditions: HEK 293A TREx cells expressing rat mGlu1
Chain of rat mGlu1 (P23385 19-1199): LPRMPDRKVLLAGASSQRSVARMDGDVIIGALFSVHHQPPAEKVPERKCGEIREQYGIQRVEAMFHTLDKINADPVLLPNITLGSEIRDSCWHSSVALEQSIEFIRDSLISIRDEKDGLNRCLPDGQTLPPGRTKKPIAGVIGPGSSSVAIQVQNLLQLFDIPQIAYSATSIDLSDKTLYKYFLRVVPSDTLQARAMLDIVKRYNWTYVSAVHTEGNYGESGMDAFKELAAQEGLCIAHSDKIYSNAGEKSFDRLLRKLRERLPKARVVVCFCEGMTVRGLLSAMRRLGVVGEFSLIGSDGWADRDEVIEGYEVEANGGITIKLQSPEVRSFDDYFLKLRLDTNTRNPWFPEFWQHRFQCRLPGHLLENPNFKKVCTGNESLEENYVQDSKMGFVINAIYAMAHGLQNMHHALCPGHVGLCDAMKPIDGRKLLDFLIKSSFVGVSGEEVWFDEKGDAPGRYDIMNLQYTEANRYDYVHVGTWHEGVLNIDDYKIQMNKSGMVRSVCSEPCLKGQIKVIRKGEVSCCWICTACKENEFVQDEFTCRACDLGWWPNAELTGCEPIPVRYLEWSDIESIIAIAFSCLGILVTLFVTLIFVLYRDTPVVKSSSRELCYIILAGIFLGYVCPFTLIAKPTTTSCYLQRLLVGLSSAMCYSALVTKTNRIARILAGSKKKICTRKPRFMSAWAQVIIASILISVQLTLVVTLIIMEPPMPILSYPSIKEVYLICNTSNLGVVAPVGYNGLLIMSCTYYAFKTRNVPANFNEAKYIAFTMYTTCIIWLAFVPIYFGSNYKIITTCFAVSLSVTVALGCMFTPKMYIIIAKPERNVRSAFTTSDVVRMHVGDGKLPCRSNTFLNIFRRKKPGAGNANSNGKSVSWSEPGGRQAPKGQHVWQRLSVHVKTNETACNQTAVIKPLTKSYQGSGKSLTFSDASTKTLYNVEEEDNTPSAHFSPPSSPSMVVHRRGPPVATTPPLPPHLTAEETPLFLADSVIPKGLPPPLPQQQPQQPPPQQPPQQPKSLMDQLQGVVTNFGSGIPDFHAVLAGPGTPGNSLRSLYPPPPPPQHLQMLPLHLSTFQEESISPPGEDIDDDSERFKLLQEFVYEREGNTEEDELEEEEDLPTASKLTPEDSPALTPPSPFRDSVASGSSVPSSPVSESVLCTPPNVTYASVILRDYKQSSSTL

[7] = test system: 68 clinically relevant GPCRs, ion channels, kinases, and transporters; test: Radioligand binding assay panel; conditions: 10 µM; significant = more than 50% inhibition of radioligand binding
[8] = test system: mGlu2–8; conditions: at 10 µM
[9] = IV dosing, rat, in words
[10] = in vivo; conditions: male, Sprague-Dawley, rat, plasma, iv, 0.2 mg/kg
[11] = test system: rat models of neuropathic pain; conditions: cited from earlier work
[12] = test system: rat models of post-operative pain; conditions: cited from earlier work

COC1CCC(C(=O)c2ccc3nc4c(cc3c2)CCCO4)CC1 (centres unmarked) [Compound 1]
efficacy in a rat model of anxiety [1]: efficacious
efficacy in rat models of addiction [2]: efficacious
efficacy in squirrel monkey models of addiction [3]: efficacious
antipsychotic activity, acoustic prepulse inhibition models, mice [4]: Antipsychotic activity

C[C@@H]1CN(c2ccncc2C#N)CCN1C(=O)C12CC3CC(CC(C3)C1)C2 [Compound 53]
LLE (ligand-lipophilicity efficiency) [5]: 2.89

C[C@@H]1CN(c2ccccc2C#N)CCN1C(=O)C12CC3CC(CC(C3)C1)C2 [Compound 46]
LLE (ligand-lipophilicity efficiency) [5]: 1.82

C[C@@H]1CN(C(=O)C23CC4CC(CC(C4)C2)C3)CCN1c1ccncc1 [Compound 39]
mGlu1 activity at the top concentration tested ([5]; 30 µM): no activity

C[C@@H]1CN(c2cccc(F)n2)CCN1C(=O)C12CC3CC(CC(C3)C1)C2 [Compound 48]
LLE (ligand-lipophilicity efficiency) [5]: 1.85

C[C@@H]1CN(c2ncccc2C#N)CCN1C(=O)C12CC3CC(CC(C3)C1)C2 [Compound 51]
LLE (ligand-lipophilicity efficiency) [5]: 2.24

C[C@@H]1CN(c2ccccn2)CCN1C(=O)C12CC3CC(CC(C3)C1)C2 [Compound 15]
preference in mGlu1 NAM activity for the R-enantiomer versus the S-enantiomer [5]: 15 fold

C[C@@H]1CN(c2cccnc2C#N)CCN1C(=O)C12CC3CC(CC(C3)C1)C2 [Compound 54]
activity at rat mGlu1 compared with human mGlu1 [6]: little difference across species
responses in radioligand binding panel of 68 targets [7]: no significant responses
activity against mGlu2–8 [8]: inactive
clearance [9]: moderate to high
volume of distribution [9]: moderate
half-life [10]: ~1 h

CN(C)c1ccnc2sc3c(=O)n(N4CCCCCC4)cnc3c12 [Compound 2]
analgesia in rat models of neuropathic pain [11]: analgesic
analgesia in rat models of post-operative pain [12]: analgesic

C[C@@H]1CN(c2ccc(F)cn2)CCN1C(=O)C12CC3CC(CC(C3)C1)C2 [Compound 49]
LLE (ligand-lipophilicity efficiency) [5]: 1.73

C[C@@H]1CN(C(=O)C23CC4CC(CC(C4)C2)C3)CCN1c1ccccn1 [Compound 17]
preference in mGlu1 NAM activity for the R-enantiomer versus the S-enantiomer [5]: sixfold
